In patent publication US9561228B2 (Celgene Avilomics Research, Inc., priority 2013, dated 2017) one finds EC50 and GI50 data, which are given here for 22 compounds.

What all share (format): cell-based
The test system of assay [1] is ERK1/2 phosphorylation of p90RSK in HT29 cells. Nature of the assay: pRSK MSD Assay in HT29 cells. Particulars: Homo sapiens, HT-29, read-out: ERK1/ERK2 PRSK MSD HT29 EC50. In short, it runs like this: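 Serum-starved HT29 cells (0.1% FBS overnight) treated with test compound for 120 min at 37° C, then lysed with protease and phosphatase inhibitors. Phospho-p90RSK quantified by MSD sandwich immunoassay: RSK capture antibody, phospho-RSK detection antibody plus Sulfo-tagged antibody, electrochemiluminescence read.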

Assay [2] concerns HCT116 cells (colorectal carcinoma). Nature of the assay: Inhibition of cancer cell proliferation, HCT116 (CellTiterGlo, 72 hours). Particulars: Homo sapiens, HCT-116. In short, it runs like this: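 3000 cells per well exposed to 3-fold serial compound dilutions from 5,000 nM (two-fold solution, stock level) for 72 hours at 37° C. CellTiterGlo luminescence converted to cell number via a standard curve; percent inhibition vs untreated wells, GI50 by curve fit.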
(In ATP-based viability assays light output follows the ATP content of the culture.)

Assay [3] concerns A375 cells (malignant melanoma). Nature of the assay: Inhibition of cancer cell proliferation, A375 (CellTiterGlo, 72 hours). To be noted: Homo sapiens, A-375. In short, it runs like this: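 A375 melanoma cells, 3000/well, exposed 72 h at 37 °C to compound in 3-fold serial dilutions (solution added as 2× stock starting at 5,000 nM in serum-free DMEM). CellTiterGlo luminescence converted to cell number via standard curve; % inhibition vs untreated control, GI50 from curve fit.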

As for `C=CC(=O)Nc1ccccc1Nc1nc(Nc2cc(OC)nc(OCCOC)c2)ncc1C(F)(F)F` [Compound I-283, N-(2-((2-((2-Methoxy-6-(2-methoxyethoxyl)pyridin-4-yl)amino)-5-(trifluoromethyl)pyrimidin-4-yl)amino)phenyl)acrylamide], the EC50 in assay [1] was < 100 nM. The GI50 in assay [2] and in assay [3] was < 100 nM each time.
Consider `C=CC(=O)Nc1ccccc1Nc1nc(Nc2cc(OC)ccc2C)ncc1C(F)(F)F` [Compound I-340, N-(2-((2-((5-methoxy-2-methylphenyl)amino)-5-(trifluoromethyl)pyrimidin-4-yl)amino)phenyl)acrylamide], for which the EC50 in assay [1] was < 100 nM. For the same compound, the results for the GI50 in assay [2] and in assay [3] were 501 to 999 nM and 101 to 500 nM, respectively.
The matching figures for `C=CC(=O)Nc1ccccc1Nc1nc(N[C@@H]2CCN(C(C)=O)C2)ncc1C(F)(F)F` [Compound I-60, (R)—N-(2-((2-((1-Acetylpyrrolidin-3-yl)amino)-5-(trifluoromethyl)pyrimidin-4-yl)amino)phenyl)acrylamide]: > 1000 nM, 501 to 999 nM and > 1000 nM.
Regarding `C=CC(=O)Nc1cc(C)ccc1Nc1nc(Nc2cc(OC)nc(N(C)CCOC)c2)ncc1C(F)(F)F` [Compound I-336, N-(2-((2-((2-methoxy-6-((2-methoxyethyl)(methyl)amino)pyridin-4-yl)amino)-5-(trifluoromethyl)pyrimidin-4-yl)amino)-5-methylphenyl)acrylamide], the EC50 in assay [1] was < 100 nM. For the same compound, the GI50 (as a rule, the concentration that inhibits growth by half) was 101 to 500 nM in assay [2] and < 100 nM in assay [3].
For `C=CC(=O)Nc1cc(C)ccc1Nc1nc(Nc2cc(OC)nc(N3CC(O)C3)c2)ncc1C(F)(F)F` [Compound I-328, N-(2-((2-((2-(3-hydroxyazetidin-1-yl)-6-methoxypyridin-4-yl)amino)-5-(trifluoromethyl)pyrimidin-4-yl)amino)-5-methylphenyl)acrylamide], the EC50 in assay [1] is < 100 nM. In addition, the GI50 in assay [2] and in assay [3] was < 100 nM each time.
Regarding `C=CC(=O)Nc1cc(C)ccc1Nc1nc(Nc2cc(NC3CC3)nc(OC)c2)ncc1C(F)(F)F` [Compound I-337, N-(2-((2-((2-(cyclopropylamino)-6-methoxypyridin-4-yl)amino)-5-(trifluoromethyl)pyrimidin-4-yl)amino)-5-methylphenyl)acrylamide], the EC50 in assay [1] is < 100 nM. Besides, the GI50 in assay [2] and in assay [3] was < 100 nM in each case.
For `C=CC(=O)Nc1cc(OC)ccc1Nc1nc(Nc2cc(OC)nc(N3CCN(CC)CC3)c2)ncc1C(F)(F)F` [Compound I-88, N-(2-((2-((2-(4-Ethylpiperazin-1-yl)-6-methoxypyridin-4-yl)amino)-5-(trifluoromethyl)pyrimidin-4-yl)amino)-5-methoxyphenyl)acrylamide], the EC50 in assay [1] fell in the range of 101 to 500 nM. In addition, the GI50 in assay [2] and in assay [3] was < 100 nM each time.
Regarding `C=CC(=O)Nc1cc(C)ccc1Nc1nc(Nc2cc(OC)nc(N(C)C3CC3)c2)ncc1C(F)(F)F` [Compound I-342, N-(2-((2-((2-(cyclopropyl(methyl)amino)-6-methoxypyridin-4-yl)amino)-5-(trifluoromethyl)pyrimidin-4-yl)amino)-5-methylphenyl)acrylamide], the EC50 in assay [1] was in the range of 101 to 500 nM. The GI50 in assay [2] and in assay [3] was 101 to 500 nM throughout.
On to `C=CC(=O)Nc1cc(C)ccc1Nc1nc(Nc2cc(OC)nc(N3CCN(C(C)=O)CC3)c2)ncc1Cl` [Compound I-296, N-(2-((2-((2-(4-acetylpiperazin-1-yl)-6-methoxypyridin-4-yl)amino)-5-chloropyrimidin-4-yl)amino)-5-methylphenyl)acrylamide], for which the EC50 in assay [1] is < 100 nM. Also, the concentration for 50% growth inhibition (GI50) in assay [2] and in assay [3] was < 100 nM throughout.
As for `C=CC(=O)Nc1cc(C(F)(F)F)ccc1Nc1nc(Nc2cc(OC)ncc2C)ncc1C(F)(F)F` [Compound I-323, N-(2-((2-((2-methoxy-5-methylpyridin-4-yl)amino)-5-(trifluoromethyl)pyrimidin-4-yl)amino)-5-(trifluoromethyl)phenyl)acrylamide], the EC50 in assay [1] was < 100 nM. Besides, the values for the GI50 in assay [2] and in assay [3] were 501 to 999 nM and 101 to 500 nM, respectively.
`C=CC(=O)Nc1cc(OC)ccc1Nc1nc(N[C@H]2CCCN(C(=O)CO)C2)ncc1C(F)(F)F` [Compound I-64, (S)—N-(2-((2-((1-(2-Hydroxyacetyl)piperidin-3-yl)amino)-5-(trifluoromethyl)pyrimidin-4-yl)amino)-5-methoxyphenyl)acrylamide]: the EC50 in assay [1] was < 100 nM. In addition, the concentration for 50% growth inhibition (GI50) in assay [2] and in assay [3] was < 100 nM each time.
As for `C=CC(=O)Nc1ccccc1Nc1nc(Nc2ccnnc2)ncc1C(F)(F)F` [Compound I-293, N-(2-((2-(Pyridazin-4-ylamino)-5-(trifluoromethyl)pyrimidin-4-yl)amino)phenyl)acrylamide], the EC50 in assay [1] was 101 to 500 nM. The GI50 in assay [2] is 101 to 500 nM; in assay [3], < 100 nM.
As for `C=CC(=O)Nc1cc(OC)ccc1Nc1nc(Nc2cc(OC)ncc2C)ncc1C(F)(F)F` [Compound I-284, N-(5-Methoxy-2-((2-((2-methoxy-5-methylpyridin-4-yl)amino)-5-(trifluoromethyl)pyrimidin-4-yl)amino)phenyl)acrylamide], the EC50 in assay [1] is < 100 nM. For the same compound, the GI50 in assay [2] was 101 to 500 nM; in assay [3] it was < 100 nM.
For the compound `C=CC(=O)Nc1cc(F)ccc1Nc1nc(Nc2cc(OC)ncc2C)ncc1C(F)(F)F` [Compound I-322, N-(5-fluoro-2-((2-((2-methoxy-5-methylpyridin-4-yl)amino)-5-(trifluoromethyl)pyrimidin-4-yl)amino)phenyl)acrylamide], in assay [1], the EC50 is < 100 nM. Besides, the GI50 in assay [2] was 101 to 500 nM; in assay [3], < 100 nM.
Consider `C=CC(=O)Nc1cc(OC)ccc1Nc1nc(Nc2cc(OC)nc(N3CCN(C(C)=O)CC3)c2)ncc1C(F)(F)F` [Compound I-91, N-(2-((2-((2-(4-Acetylpiperazin-1-yl)-6-methoxypyridin-4-yl)amino)-5-(trifluoromethyl)pyrimidin-4-yl)amino)-5-methoxyphenyl)acrylamide], for which, in assay [1], the EC50 lay within 101 to 500 nM. Further, the GI50 in assay [2] and in assay [3] was < 100 nM in each case.
As to `C=CC(=O)Nc1ccccc1Nc1nc(Nc2cc(Cl)nc(OC)c2)ncc1Cl` [Compound I-246, N-(2-((5-chloro-2-((2-chloro-6-methoxypyridin-4-yl)amino)pyrimidin-4-yl)amino)phenyl)acrylamide], in assay [1], the EC50 is < 100 nM. For the same compound, the GI50 in assay [2] was 101 to 500 nM; in assay [3] it was < 100 nM.
Take `C=CC(=O)Nc1ccccc1Nc1nc(N[C@H]2CCCN(C(C)=O)C2)ncc1Cl` [Compound I-115, (S)—N-(2-((2-((1-acetylpiperidin-3-yl)amino)-5-chloropyrimidin-4-yl)amino)phenyl)acrylamide]: in assay [1], the EC50 is < 100 nM. Besides, the figures for the 50% growth inhibitory concentration (GI50) in assay [2] and in assay [3] were 101 to 500 nM and < 100 nM, respectively.
`C=CC(=O)Nc1cc(C)ccc1Nc1nc(N[C@H]2CCCN(C(=O)CO)C2)ncc1Cl` [Compound I-140, (S)—N-(2-((5-chloro-2-((1-(2-hydroxyacetyl)piperidin-3-yl)amino)pyrimidin-4-yl)amino)-5-methylphenyl)acrylamide]: the EC50 in assay [1] was < 100 nM. In addition, the GI50 in assay [2] and in assay [3] was < 100 nM each time.
For `C=CC(=O)Nc1cc(C)ccc1Nc1nc(Nc2cc(OC)nc(N3CCN(C)CC3)c2)ncc1C(F)(F)F` [Compound I-325, N-(2-((2-((2-methoxy-6-(4-methylpiperazin-1-yl)pyridin-4-yl)amino)-5-(trifluoromethyl)pyrimidin-4-yl)amino)-5-methylphenyl)acrylamide], the EC50 in assay [1] lay within 101 to 500 nM. The GI50 in assay [2] and in assay [3] was < 100 nM each time.
Turning to `C=CC(=O)Nc1cc(C)ccc1Nc1nc(Nc2cc(C(N)=O)ccn2)ncc1Cl` [Compound I-238, 2-((4-((2-acrylamido-4-methylphenyl)amino)-5-chloropyrimidin-2-yl)amino)isonicotinamide], the EC50 in assay [1] was < 100 nM. The GI50 in assay [2] was > 1000 nM; in assay [3], 101 to 500 nM.
`C=CC(=O)Nc1ccccc1Nc1nc(N[C@H]2CCN(C(=O)OC)C2)ncc1C(F)(F)F` [Compound I-59, (S)-methyl 3-((4-((2-Acrylamidophenyl)amino)-5-(trifluoromethyl)pyrimidin-2-yl)amino)pyrrolidine-1-carboxylate]: the EC50 in assay [1] was > 1000 nM. Further, the results for the GI50 in assay [2] and in assay [3] were 501 to 999 nM and 101 to 500 nM, respectively.
Turning to `C=CC(=O)Nc1cc(OC)ccc1Nc1nc(Nc2cc(Cl)nc(OC)c2)ncc1Cl` [Compound I-245, N-(2-((5-chloro-2-((2-chloro-6-methoxypyridin-4-yl)amino)pyrimidin-4-yl)amino)-5-methoxyphenyl)acrylamide], in assay [1], the EC50 was < 100 nM. Also, the GI50 in assay [2] and in assay [3] was 101 to 500 nM each time.
